{"source": "paper PMC9487543", "about": "(Antimicrobial Agents and Chemotherapy, 2022)", "key": {"[1]": {"assay": "Safety and tolerability in subjects with various degrees of renal impairment", "conditions": "human, in vivo", "procedure": "Safety was assessed based on the occurrence of adverse events and on the evaluation of laboratory tests (chemistry, hematology, urinalysis, and coagulation), physical examinations, vital signs, and 12-lead ECGs. Safety was followed through 7 days post-dose."}, "[2]": {"assay": "Plasma pharmacokinetics in hemodialysis-dependent subjects, On-dialysis vs Off-dialysis periods", "format": "in vivo, human", "conditions": "for AUC(0-inf) / Cmax / AUCinf / CL / VZ / t1/2: single 2 h IV infusion 2 g cefepime + 0.5 g taniborbactam; for AUC(0-inf) / Cmax / AUCinf / CL / VZ: geometric mean (geometric CV %); for t1/2: mean (SD)", "procedure": "(§1) In addition to the groups enrolled by renal function to study the effect of renal impairment, a group of subjects with ESRD undergoing chronic intermittent hemodialysis were enrolled into a separate group (Group 5; “Dialysis”) to determine the amounts of drug removed by filtration. Hemodialysis used standard commercial dialyzers and membranes. […] A fixed sequence of dialysis timing with respect to dose was used, where the dose was administered prior to dialysis in the first treatment period (“On-dialysis”; Period 1) and administered following dialysis in the second treatment period (“Off-dialysis”; Period 2). […] For the Off-dialysis period, subjects had the SOI begin approximately 6 h after the start of dialysis, which was after the dialysis had been completed.\nAdditional blood samples, if not already collected by a defined time point, were collected at 1 h after the start of dialysis and again at the end of dialysis.\nHuman dipotassium ethylenediaminetetraacetic acid plasma samples were processed using protein precipitation prior to assay. Urine samples collected for pharmacokinetic analysis in the study were processed and assayed for only taniborbactam using a validated bioanalytical method. […] Acidified urine and dialysate samples were processed using solid-phase extraction prior to assay. […]\n(§2) Estimated plasma pharmacokinetic parameters included the Cmax, time to Cmax (Tmax), AUC through the last measurable observed concentration (AUCt), AUCinf, t1/2, CL, and VZ. For taniborbactam, using the urine observations, the amount excreted unchanged in urine (Ae), fraction excreted unchanged in urine as the percentage of administered dose (Fe), renal clearance (CLR), and nonrenal clearance (CLNR) were calculated. The actual sample times were used to calculate the pharmacokinetic parameters. […] If a good estimate of λZ could not be determined for a concentration-time profile, then none of the pharmacokinetic parameters dependent on λZ were calculated.\n(§3) For Dialysis subjects (Group 5), the effect of hemodialysis was examined by comparing differences within each subject (On-Dialysis versus Off-Dialysis). The CLd was calculated by taking the individual averaged arterial to venous concentration extraction ratio (CER), multiplying by the reported Qb, and correcting for hematocrit (hct). The hct was estimated as 0.47, an assumption based on the fact that all subjects in the group were male. The amounts of drug removed by hemodialysis (Adial) were calculated using the area under the excretion rate curves, where the rates were determined using the spot dialysis concentrations and estimated dialysate volumes over a 1 min period using the Qd. The fraction of drug removed during hemodialysis, or HER, was then determined by dividing Adial by dose and was expressed as a percentage."}, "[3]": {"conditions": "cited from earlier work"}, "[4]": {"assay": "Dialysis parameters (dialysis clearance, hemodialysis extraction ratio)", "format": "in vivo, human", "procedure": "as §1\nHuman dipotassium ethylenediaminetetraacetic acid plasma samples were processed using protein precipitation prior to assay. Urine samples collected for pharmacokinetic analysis in the study were processed and assayed for only taniborbactam using a validated bioanalytical method. […] Acidified urine and dialysate samples were processed using solid-phase extraction prior to assay.\n(§4) Validated LC-MS/MS methods (LLOQ = 5.00 ng/mL) were used to quantitate the concentrations of taniborbactam in urine.\nas §3"}, "[5]": {"system": "Ambler Class A, C, and D serine-β-lactamases, and the Ambler class B metallo-β-lactamases", "conditions": "including VIM and NDM; cited from earlier work"}, "[6]": {"conditions": "human, in vivo", "text": "Subjects aged 18 to 80 years were enrolled into 1 of 4 groups based on the level of renal function (renal groups). […] Subjects in the Normal group were matched to subjects with renal impairment with regard to gender, age (±10 years), and weight (±10 kg). A single healthy subject may have been the match for more than one subject with renal impairment.\nHuman dipotassium ethylenediaminetetraacetic acid plasma samples were processed using protein precipitation prior to assay. Urine samples collected for pharmacokinetic analysis in the study were processed and assayed for only taniborbactam using a validated bioanalytical method. […]\nas §4\nas §2, with “calculated.” for “calculated. The actual sample times were used to calculate the pharmacokinetic parameters.”, “calculated. […]” for “calculated.”"}, "[7]": {"assay": "Urine pharmacokinetics (renal clearance) of taniborbactam by renal group", "format": "in vivo, human", "conditions": "single 2 h IV infusion 2 g cefepime + 0.5 g taniborbactam, geometric mean (geometric CV %)", "procedure": "Urine was collected to further assess taniborbactam pharmacokinetics. Subjects were instructed to empty their bladders completely before study drug administration and just before the end of each collection interval. Urine from each timed interval was collected in a separate container. The exact start dates, stop dates, times of urine collection, and the weight and volume of each collection were recorded. Urine samples were collected within intervals of 0 to 6 h, 6 to 12 h, 12 to 24 h, 24 to 48 h, 48 to 72 h, and 72 to 96 h following the SOI. […] Urine samples were not collected from anuric subjects.\n[…]. […] […]."}, "[8]": {"conditions": "Dialysis group, Off-dialysis (n = 7)"}, "[9]": {"conditions": "Dialysis group, On-dialysis (n = 6)"}}, "note": "Like-named read-outs stand apart in the source and are kept apart here. Marks after values point to notes of the source that are not given here."}
{"compound": "cefepime-taniborbactam", "values": [{"measurement": "adverse events considered related to treatment", "setting": "[1]", "value": "7 of 8"}, {"measurement": "adverse events mild in severity", "setting": "[1]", "value": "7 of 8"}, {"measurement": "deaths", "setting": "[1]", "value": "no deaths"}, {"measurement": "number of treatment emergent adverse events", "setting": "[1]", "value": 8}, {"measurement": "serious adverse events", "setting": "[1]", "value": "No subjects experienced serious adverse events"}, {"measurement": "subjects who experienced treatment emergent adverse events", "setting": "[1]", "value": 7, "unit": "subjects"}]}
{"compound": "CO/N=C(\\C(=O)N[C@@H]1C(=O)N2C(C(=O)[O-])=C(C[N+]3(C)CCCC3)CS[C@H]12)c1csc(N)n1", "note": "[cefepime, Cefepime, reference compound]", "values": [{"measurement": "AUC(0-inf)", "setting": "[2]; male, human, plasma, iv, Dialysis group, Off-dialysis (n = 7)", "value": 4550, "unit": "µg·h/mL"}, {"measurement": "Cmax", "setting": "[2]; male, human, plasma, iv, Dialysis group, Off-dialysis (n = 7), read-out: Cmax", "value": 165, "unit": "µg/mL"}, {"measurement": "AUC(0-inf)", "setting": "[2]; male, human, plasma, iv, Dialysis group, On-dialysis (n = 6)", "value": 1600, "unit": "µg·h/mL"}, {"measurement": "Cmax", "setting": "[2]; male, human, plasma, iv, Dialysis group, On-dialysis (n = 6), read-out: Cmax", "value": 105, "unit": "µg/mL"}, {"measurement": "amount removed during a hemodialysis session", "setting": "[3]; 3 h hemodialysis session", "value": "approximately 68%"}, {"measurement": "dose excreted unchanged in urine", "setting": "[3]; following administration of 0.25 to 2 g cefepime", "value": "at least 80%"}]}
{"compound": "NCCN[C@H]1CC[C@H](CC(=O)N[C@H]2Cc3cccc(C(=O)O)c3OB2O)CC1", "note": "[taniborbactam, Taniborbactam]", "values": [{"measurement": "AUCinf", "setting": "[2]; [8]", "value": "2003 (32.1) h·μg/mL"}, {"measurement": "CL", "setting": "[2]; [8]", "value": "0.245 (29.8) L/h"}, {"measurement": "Cmax", "setting": "[2]; [8]", "value": "37.7 (73.7) μg/mL"}, {"measurement": "VZ", "setting": "[2]; [8]", "value": "23.7 (13.4) L"}, {"measurement": "t1/2", "setting": "[2]; [8]", "value": "70.8 (22.3) h"}, {"measurement": "AUCinf", "setting": "[2]; [9]", "value": "851 (23.0) h·μg/mL"}, {"measurement": "CL", "setting": "[2]; [9]", "value": "0.579 (23.0) L/h"}, {"measurement": "Cmax", "setting": "[2]; [9]", "value": "23.4 (9.5) μg/mL"}, {"measurement": "VZ", "setting": "[2]; [9]", "value": "68.1 (15.1) L"}, {"measurement": "t1/2", "setting": "[2]; [9]", "value": "83.7 (21.5) h"}, {"measurement": "decrease in geometric mean AUC following hemodialysis", "setting": "[2]; Dialysis group, On-dialysis vs Off-dialysis", "value": 58, "unit": "%"}, {"measurement": "AUCinf least-squares GMR (90% CI)", "setting": "[2]; On-dialysis/Off-dialysis", "value": 39.29, "unit": "%"}, {"measurement": "hemodialysis extraction ratio (HER), fraction of dose removed during hemodialysis, mean (SD)", "setting": "[4]; On-dialysis period, 4 h hemodialysis session", "value": 49.7, "unit": "%"}, {"measurement": "dialysis clearance (CLd), mean (SD)", "setting": "[4]; On-dialysis period, 4 h hemodialysis, Qb 350 to 450 mL/min", "value": "102 (5.3) mL/min"}, {"measurement": "dialyzability", "setting": "[4]; hemodialysis", "value": "dialyzable"}, {"measurement": "β-lactamase inhibition", "setting": "[5]", "value": "potent competitive inhibition"}, {"measurement": "VZ least-square geometric mean ratio (90% CI)", "setting": "[6]", "value": 149.94, "unit": "%"}, {"measurement": "dose recovered in urine as unchanged parent compound", "setting": "[3]; at steady-state", "value": "approximately 89%"}, {"measurement": "CLR", "setting": "[7]; Mild renal impairment (n = 6)", "value": "4.23 (22.7) L/h"}, {"measurement": "CLR", "setting": "[7]; Moderate renal impairment (n = 6)", "value": "1.59 (21.0) L/h"}, {"measurement": "CLR", "setting": "[7]; Normal renal function (n = 7)", "value": "4.37 (17.8)^d L/h"}, {"measurement": "CLR", "setting": "[7]; Severe renal impairment (n = 6)", "value": "0.76 (120.3) L/h"}]}
